# Laboratory results from patent US7163589B2 (priority 2001, dated 2007).
# Tested on: Mouse immunoglobulin (IgG)
structure (smiles),measurement,value
"COC(F)(F)C(F)(F)C(F)(F)C(F)(F)F [HFE-7100, methyl nonafluorobutyl ether]",Effect on protein conformation (denaturation),changes the conformation of the proteins
